The subject of experiment [1] is 1-LN cells. Briefly: In vitro Matrigel invasion assay (modified Boyden chamber). To be noted: cells incubated with Pg (Pg 2ε) plus inhibitor, in words. In kind it is cell-based, human. As to the method: In Vitro Invasion Assay—The invasive activity in vitro was assessed by determining the ability of 1-LN cells to invade Matrigel® [47]. Polycarbonate filters (8-μm pore size; Becton Dickinson, Franklin Lakes, N.J.) were coated with Matrigel (12 μg/filter) and placed in a modified Boyden chamber. Cells (1×10^5) were added to the upper chamber in serum-free RPMI 1640 medium, or medium containing purified Pg 2 glycoforms in the absence and presence of anti-DPP IV, anti-u-PA or anti-MMP-9 IgGs, and incubated for 48 h in a humidified atmosphere. Following incubation, non-invading cells were removed from the upper chamber with a cotton swab, and filters were excised and stained with Cyto-Quik™ (Fisher Scientific, Fair Lawn, N.J.). Cells on the lower surface of the filter were enumerated using an ocular micrometer and counting a minimum of five high-powered fields. Each experiment was performed twice with triplicate samples.
Effect of Pg on 1-LN Cellular Invasion—Pg enhances the ability of prostate cancer PC-3 and DU-145 cell lines to penetrate the synthetic basement membrane Matrigel® [54]. To determine whether Pg regulates invasion via secretion of MMP-9, 1-LN cells were incubated with different inhibiting antibodies in the presence of purified Pg 2 glycoforms.

Experiment [2] relates to 1-LN cells. Description: MMP-9 activity in serum-free culture medium of 1-LN cells (quantitative gelatin zymography). The format is cell-based, human. On the procedure: Gelatin Zymography—Protein samples were electrophoresed on gelatin-containing 0.75 mm thick 10% polyacrylamide gels in the presence of SDS under nonreducing conditions. After completion of the electrophoretic run, the gels were incubated with two changes of 2.5% Triton X-100 for 1 h, followed by incubation for 18 h at 37° C. in 0.1 M glycine-NaOH, pH 8.3, containing 1 mM CaCl2, and […], before staining with Coomassie Brilliant Blue R-250 to visualize the lysis bands.
MMP-9 Activity in Solution—MMP-9 activity was measured in tissue culture supernatants by quantitative zymography using as a standard MMP-9 purified by affinity chromatography on gelatin-Sepharose from 1-LN cell conditioned medium (10 liters). Conditioned medium (50 μl), from 1-LN cell monolayers in 48 well culture plates (1.7×10^6 cells/well) incubated with Pg 2 glycoforms and/or inhibitors of Pg binding or activation, were electrophoresed on gelatin-containing gels and the degree of lysis was quantified using a Gelman ACD-15 Automatic Computing Densitometer (Gelman Instrument Company, Ann Arbor, Mich.). Values were determined by integrating the density of the selected bands and expressed in units×mm^2. Each gel was scanned three times and the average value of the integrated density of the bands was used to determine levels of MMP-9 from calibration curves constructed with purified active MMP-9 electrophoresed under the same conditions. The statistical analysis of the data was performed on an IBM 433 DX/S computer using the program SYSTAT® for Windows 95. The statistical significance of differences between means was evaluated by Student's t-test. MMP-9 was positively identified in conditioned medium by electrophoretic separation in 10% SDS-polyacrylamide gels (SDS-PAGE), electroblot of the electrophoresed proteins to nitrocellulose membranes and reaction with an anti-MMP-9 mAb (1 μg/ml) followed by reaction with a secondary alkaline phosphatase conjugated anti-mouse IgG. Detection was performed by reaction with the alkaline phosphatase substrate 5-bromo-4-chloro-3-indolyl phosphate in the presence of nitroblue tetrazolium (1 mM each) in 10 mM Tris-HCl, pH 8.5.
Effect of Pg on the Expression of MMP-9 by 1-LN Cells—Cells were seeded into 48-well culture plates and grown in RPMI 1640 containing 10% fetal bovine serum. Confluent monolayers were then incubated for 24 h with quiescent culture medium containing RPMI 1640 and 0.5% fetal bovine serum. Each individual Pg 2 glycoform (0.1 μM) was added in triplicate to cell monolayers in 300 μl of serum-free RPMI 1640 and incubated for 24 h at 37° C. Culture medium was collected to measure secretion of MMP-9 as described under Experimental Procedures. Prior to analyses of the MMP-9 secreted into the medium by 1-LN cells in the presence of individual Pg 2 glycoforms, we purified MMP-9 from conditioned medium (5 liters) by the technique of Masure et al.. […] A similar analysis of the Mr˜95,000 protein yielded the sequence APRQRQ, corresponding to the amino-terminal sequence of proMMP-9. […] We then proceeded to analyze the MMP-9 secreted into the medium by 1-LN cells incubated with each individual Pg 2 glycoform in serum-free culture medium, using the purified MMP-9 as a standard for quantification by gelatin zymography. These analyses (FIG. 7A) show a major band of active protein with a Mr˜85,000. […] Samples of these conditioned media were also subjected to SDS-PAGE under reducing conditions, electroblotted to nitrocellulose membranes and then reacted with an anti-MMP-9 mAb (FIG. 7B). […] A 4-fold decrease in the production of MMP-9 by cells co-incubated with anti-DPP IV mAb 236.3 and Pg 2ε (p<0.001) (Table II) is clearly observed in the conditioned medium (Lane 6 on FIGS. 8A and 8B, respectively).

The subject of experiment [3] is 1-LN human prostate tumor cells. Description: Binding of 125I-labeled Pg 2 glycoforms to 1-LN cells. To be noted: 125I-labeled glycoform 0.1 μM, increasing concentrations of inhibitor. On the procedure:
Ligand Binding Analysis—Cells were grown in tissue culture plates until the monolayers were confluent. Prior to use in binding assays, the cells were washed in HBSS. All binding assays were performed at 4° C. in RPMI 1640 containing 2% bovine serum ablumin (BSA). Increasing concentrations of ^125I-labeled Pg 2 glycoforms were incubated with cells for 60 min in 48-well or 96-well culture plates, respectively. Free ligand was separated from bound by aspirating the incubation mixture by and washing the cell monolayers rapidly three times with RPMI 1640 containing 2% BSA. The cells were then lyzed with 0.1 M NaOH, and bound radioactivity was determined in a Pharmacia LKB Biotechnology 1272-gamma counter. Molecules of ligand bound were calculated after substraction of non-specific binding measured in the presence of nonlabeled 100 μM Pg 2. Estimates for dissociation constant (Kd) values and maximal binding of Pg 2 glycoforms (Bmax) were determined by fitting data directly to the Langmuir isotherm using the statistical program SYStat® for Windows.
Binding of Single Pg 2 Glycoforms to 1-LN Human Prostate Tumor Cells—Binding of ^125I-labeled single Pg 2 glycoforms to 1-LN cells was determined as described under Experimental Procedures. Native Pg 2 has six glycoforms which differ in their sialic acid content.
In order to assess the binding mechanism of the individual Pg 2 glycoforms to 1-LN cells, we studied their activation by cells incubated with each glycoform in the presence of 6-aminohexanoic acid (6-AHA) and L-lactose. The antifibrinolytic amino acid 6-AHA prevents interaction of Pg L-lysine binding sites with several cell membrane-associated components. L-lactose is a sugar which intereferes with binding of Neu 5-AC (α2-3) or (α2-6) residues to sialic acid binding proteins and inhibits binding of Native Pg 2 to DPP IV on the surface of rheumatoid synovial fibroblasts.

angiostatin: the “Effect on Pg-induced Matrigel invasion by 1-LN cells” value in the experiment on 1-LN cells [1] is reported as “total inhibition”. Regarding `NCCCCCC(=O)O` [Glycoform 6-AHA, 6-aminohexanoic acid, reference compound], in the experiment with 1-LN cells [2] (SFM + additive alone, no Pg 2 glycoform, 24 h), the “Active MMP-9” value was 0.61 ± 0.14 ng/mL. In the experiment on 1-LN cells [2] (co-incubated with 6-AHA (100 mM) and individual Pg 2 glycoforms, versus controls), the “Changes in the production of MMP-9” value was “did not show any major changes”. Also, the “Inhibition of binding of single Pg 2 glycoforms to 1-LN cells” value in experiment [3] was “inhibited the binding of Pg 2α and Pg 2β”.

Turning to “FN peptide L1768 TSRPA: polypeptide comprising the fibronectin (FN) primary sequence L1768 TSRPA that mediates FN binding to CD26/DPP IV (FPAPDG; UniProt P02751 1768-1773, looked up, fragment)”, the “Effect on Pg-induced Matrigel invasion by 1-LN cells” value in the experiment on 1-LN cells [1] is reported as “inhibited Pg-induced Matrigel invasion by 1-LN cells in a dose-dependent manner”.

These data come from US20030138429A1, “Compositions and methods for inhibiting metastasis” (priority 2001, published 2003).
